Measured values published in ChEMBL document CHEMBL1909046, “DrugMatrix in vitro pharmacology data”.

Legend:
[1] = DRUGMATRIX: Glutamate, Kainate radioligand binding (ligand: [3H] Kainic acid); assay type: cell membranes, Rattus norvegicus, Wistar, Brain, Membrane; settings: Not Active = under 50% inhibition at 10 µM
Adenosine receptor A1 = molecular target: T1, Adenosine receptor A1 (Homo sapiens, UniProt P30542); assay type: cell membranes, Membrane; settings: cho;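 further: radioligand binding assay at the adenosine A1 receptor, with DPCPX serving as the labelled ligand; in other assays of this panel Not Active means under 50% inhibition at 10 µM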
T1 sequence (P30542 whole entry): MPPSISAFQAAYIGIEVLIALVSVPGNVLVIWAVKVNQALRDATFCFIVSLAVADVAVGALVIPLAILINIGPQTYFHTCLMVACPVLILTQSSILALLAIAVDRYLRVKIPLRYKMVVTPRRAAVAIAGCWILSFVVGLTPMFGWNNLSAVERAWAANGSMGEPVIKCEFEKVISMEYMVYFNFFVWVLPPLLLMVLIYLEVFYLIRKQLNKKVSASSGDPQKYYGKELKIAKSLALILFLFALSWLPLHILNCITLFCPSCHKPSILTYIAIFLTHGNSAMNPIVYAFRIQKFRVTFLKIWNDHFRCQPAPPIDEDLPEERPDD

[2] = molecular target: Sigma non-opioid intracellular receptor 1 (Homo sapiens, UniProt Q99720); experiment: DRUGMATRIX: Sigma1 radioligand binding (ligand: [3H] Haloperidol); assay type: cell membranes, Jurkat, Membrane; settings: jurkat; Not Active = under 50% inhibition at 10 µM
Cytochrome P450 1A2 = molecular target: T2, Cytochrome P450 1A2 (Homo sapiens, UniProt P05177); settings: bti-tn-5b1-4; further: in other assays of this panel Not Active means under 50% inhibition at 10 µM
T2 sequence (P05177 whole entry): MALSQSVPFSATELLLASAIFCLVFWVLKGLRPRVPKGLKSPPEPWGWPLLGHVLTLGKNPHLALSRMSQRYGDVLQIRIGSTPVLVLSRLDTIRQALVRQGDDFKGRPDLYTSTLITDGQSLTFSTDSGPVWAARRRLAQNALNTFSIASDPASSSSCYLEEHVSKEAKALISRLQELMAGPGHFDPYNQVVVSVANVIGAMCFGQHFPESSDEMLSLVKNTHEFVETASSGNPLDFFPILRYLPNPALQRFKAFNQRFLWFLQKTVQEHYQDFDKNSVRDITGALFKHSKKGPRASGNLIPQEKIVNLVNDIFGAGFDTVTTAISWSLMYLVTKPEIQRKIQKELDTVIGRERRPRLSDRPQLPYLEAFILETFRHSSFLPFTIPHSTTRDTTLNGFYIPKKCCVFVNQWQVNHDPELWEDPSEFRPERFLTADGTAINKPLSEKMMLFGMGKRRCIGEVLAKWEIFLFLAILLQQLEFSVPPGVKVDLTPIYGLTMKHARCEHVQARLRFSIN

[3] = molecular target: Kappa-type opioid receptor (Homo sapiens, UniProt P41145); experiment: DRUGMATRIX: Opiate kappa (OP2, KOP) radioligand binding (ligand: [3H] Diprenorphine); assay type: cell membranes, HEK293, Membrane; settings: hek293; Not Active = under 50% inhibition at 10 µM
Cytochrome P450 2D6 = Cytochrome P450 2D6 (Homo sapiens, UniProt P10635); settings: bti-tn-5b1-4; further: in other assays of this panel Not Active means under 50% inhibition at 10 µM
[4] = DRUGMATRIX: Calcium Channel Type L, Dihydropyridine radioligand binding (ligand: [3H] Nitrendipine); assay type: cell membranes, Rattus norvegicus, Wistar, Cerebral cortex, Membrane; settings: Not Active = under 50% inhibition at 10 µM

Cytochrome P450 2D6, sequence (P10635 whole entry): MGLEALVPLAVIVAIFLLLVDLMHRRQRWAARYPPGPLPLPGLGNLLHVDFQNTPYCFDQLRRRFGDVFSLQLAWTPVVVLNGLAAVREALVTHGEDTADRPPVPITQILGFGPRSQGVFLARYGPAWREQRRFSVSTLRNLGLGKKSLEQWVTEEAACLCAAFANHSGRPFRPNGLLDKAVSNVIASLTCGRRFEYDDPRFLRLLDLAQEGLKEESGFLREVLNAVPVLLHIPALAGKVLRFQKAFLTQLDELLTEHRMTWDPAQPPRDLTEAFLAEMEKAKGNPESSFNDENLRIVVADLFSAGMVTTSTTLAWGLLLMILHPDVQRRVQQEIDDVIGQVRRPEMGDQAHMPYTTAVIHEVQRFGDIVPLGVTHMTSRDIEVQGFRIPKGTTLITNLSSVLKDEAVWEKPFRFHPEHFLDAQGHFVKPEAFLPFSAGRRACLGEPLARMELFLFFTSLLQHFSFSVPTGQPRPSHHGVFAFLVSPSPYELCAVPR
Kappa-type opioid receptor, sequence (P41145 whole entry): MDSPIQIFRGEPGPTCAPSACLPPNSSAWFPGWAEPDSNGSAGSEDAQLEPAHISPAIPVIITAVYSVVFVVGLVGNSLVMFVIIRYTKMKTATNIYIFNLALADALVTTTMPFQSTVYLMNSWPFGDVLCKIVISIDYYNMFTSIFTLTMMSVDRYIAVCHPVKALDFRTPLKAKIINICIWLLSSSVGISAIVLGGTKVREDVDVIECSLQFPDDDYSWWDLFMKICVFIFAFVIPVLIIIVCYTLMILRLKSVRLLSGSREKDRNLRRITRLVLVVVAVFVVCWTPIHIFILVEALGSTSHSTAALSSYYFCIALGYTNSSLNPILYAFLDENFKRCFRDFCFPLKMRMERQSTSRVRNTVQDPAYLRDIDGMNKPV
Sigma non-opioid intracellular receptor 1, sequence (Q99720 whole entry): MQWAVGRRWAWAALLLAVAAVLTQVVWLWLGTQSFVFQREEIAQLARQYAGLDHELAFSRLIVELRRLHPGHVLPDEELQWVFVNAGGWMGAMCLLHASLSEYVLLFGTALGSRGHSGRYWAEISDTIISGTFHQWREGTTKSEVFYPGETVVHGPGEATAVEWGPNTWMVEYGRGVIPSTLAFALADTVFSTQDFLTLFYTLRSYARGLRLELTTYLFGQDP

CN(C)/N=N/c1[nH]cnc1C(N)=O [DACARBAZINE]
Not Active: IC50 [1] | Ki [1] | IC50 (Adenosine receptor A1) | IC50 [2] | IC50 (Cytochrome P450 1A2) | Ki (Cytochrome P450 1A2) | IC50 [3] | IC50 (Cytochrome P450 2D6) | Ki (Cytochrome P450 2D6) | IC50 [4] | Ki [4]

CC(=O)Nc1c(I)c(NC(C)=O)c(I)c(C(=O)O)c1I [DIATRIZOIC ACID]
Not Active: IC50 [1] | Ki [1] | IC50 (Adenosine receptor A1) | IC50 [2] | IC50 (Cytochrome P450 1A2) | Ki (Cytochrome P450 1A2) | IC50 [3] | IC50 (Cytochrome P450 2D6) | Ki (Cytochrome P450 2D6) | IC50 [4] | Ki [4]

O=C(O)Cc1ccccc1Nc1c(Cl)cccc1Cl [DICLOFENAC]
Not Active: IC50 [1] | Ki [1] | IC50 (Adenosine receptor A1) | IC50 [2] | IC50 (Cytochrome P450 1A2) | Ki (Cytochrome P450 1A2) | IC50 [3] | IC50 (Cytochrome P450 2D6) | Ki (Cytochrome P450 2D6) | IC50 [4] | Ki [4]

C[C@H]1O[C@@H](O[C@H]2[C@@H](O)C[C@H](O[C@H]3[C@@H](O)C[C@H](O[C@H]4CC[C@@]5(C)[C@H](CC[C@@H]6[C@@H]5CC[C@]5(C)[C@@H](C7=CC(=O)OC7)CC[C@]65O)C4)O[C@@H]3C)O[C@@H]2C)C[C@H](O)[C@@H]1O [DIGITOXIN]
Not Active: IC50 [1] | Ki [1] | IC50 (Adenosine receptor A1) | IC50 [2] | IC50 (Cytochrome P450 1A2) | Ki (Cytochrome P450 1A2) | IC50 [3] | IC50 (Cytochrome P450 2D6) | Ki (Cytochrome P450 2D6) | IC50 [4] | Ki [4]

Cn1c(=O)c2c(ncn2CC2OCCO2)n(C)c1=O [DOXOFYLLINE]
Not Active: IC50 [1] | Ki [1] | IC50 (Adenosine receptor A1) | IC50 [2] | IC50 (Cytochrome P450 1A2) | Ki (Cytochrome P450 1A2) | IC50 [3] | IC50 (Cytochrome P450 2D6) | Ki (Cytochrome P450 2D6) | IC50 [4] | Ki [4]

COc1cccc2c1C(=O)c1c(O)c3c(c(O)c1C2=O)C[C@@](O)(C(=O)CO)C[C@@H]3O[C@H]1C[C@H](N)[C@H](O)[C@H](C)O1 [DOXORUBICIN]
Not Active: IC50 [1] | Ki [1] | IC50 (Adenosine receptor A1) | IC50 [2] | IC50 (Cytochrome P450 1A2) | Ki (Cytochrome P450 1A2) | IC50 [3] | IC50 (Cytochrome P450 2D6) | Ki (Cytochrome P450 2D6) | IC50 [4] | Ki [4]

COc1cccc2c1C(=O)c1c(O)c3c(c(O)c1C2=O)C[C@@](O)(C(=O)CO)C[C@@H]3O[C@H]1C[C@H](N)[C@@H](O)[C@H](C)O1 [EPIRUBICIN]
Not Active: IC50 [1] | Ki [1] | IC50 (Adenosine receptor A1) | IC50 [2] | IC50 (Cytochrome P450 1A2) | Ki (Cytochrome P450 1A2) | IC50 [3] | IC50 (Cytochrome P450 2D6) | Ki (Cytochrome P450 2D6) | IC50 [4] | Ki [4]

C[C@]12CC[C@@H]3c4ccc(OC(=O)c5ccccc5)cc4CC[C@H]3[C@@H]1CC[C@@H]2O [ESTRADIOL BENZOATE]
Not Active: IC50 [1] | Ki [1] | IC50 (Adenosine receptor A1) | IC50 [2] | IC50 (Cytochrome P450 1A2) | Ki (Cytochrome P450 1A2) | IC50 [3] | IC50 (Cytochrome P450 2D6) | Ki (Cytochrome P450 2D6) | IC50 [4] | Ki [4]

C[C@]12CC[C@@H]3c4ccc(O)cc4CC[C@H]3[C@@H]1CC[C@@H]2O [ESTRADIOL]
Not Active: IC50 [1] | Ki [1] | IC50 (Adenosine receptor A1) | IC50 [2] | IC50 (Cytochrome P450 1A2) | Ki (Cytochrome P450 1A2) | IC50 [3] | IC50 (Cytochrome P450 2D6) | Ki (Cytochrome P450 2D6) | IC50 [4] | Ki [4]

CC[C@@H](CO)NCCN[C@@H](CC)CO [ETHAMBUTOL]
Not Active: IC50 [1] | Ki [1] | IC50 (Adenosine receptor A1) | IC50 [2] | IC50 (Cytochrome P450 1A2) | Ki (Cytochrome P450 1A2) | IC50 [3] | IC50 (Cytochrome P450 2D6) | Ki (Cytochrome P450 2D6) | IC50 [4] | Ki [4]

CC1(C)O[C@@H]2C[C@H]3[C@@H]4C[C@H](F)C5=CC(=O)C=C[C@]5(C)[C@H]4[C@@H](O)C[C@]3(C)[C@]2(C(=O)CO)O1 [FLUNISOLIDE]
Not Active: IC50 [1] | Ki [1] | IC50 (Adenosine receptor A1) | IC50 [2] | IC50 (Cytochrome P450 1A2) | Ki (Cytochrome P450 1A2) | IC50 [3] | IC50 (Cytochrome P450 2D6) | Ki (Cytochrome P450 2D6) | IC50 [4] | Ki [4]

CC1(C)O[C@@H]2C[C@H]3[C@@H]4C[C@H](F)C5=CC(=O)C=C[C@]5(C)[C@@]4(F)[C@@H](O)C[C@]3(C)[C@]2(C(=O)CO)O1 [FLUOCINOLONE ACETONIDE]
Not Active: IC50 [1] | Ki [1] | IC50 (Adenosine receptor A1) | IC50 [2] | IC50 (Cytochrome P450 1A2) | Ki (Cytochrome P450 1A2) | IC50 [3] | IC50 (Cytochrome P450 2D6) | Ki (Cytochrome P450 2D6) | IC50 [4] | Ki [4]

CC1(C)O[C@@H]2C[C@H]3[C@@H]4C[C@H](F)C5=CC(=O)CC[C@]5(C)[C@H]4[C@@H](O)C[C@]3(C)[C@]2(C(=O)CO)O1 [FLURANDRENOLIDE]
Not Active: IC50 [1] | Ki [1] | IC50 (Adenosine receptor A1) | IC50 [2] | IC50 (Cytochrome P450 1A2) | Ki (Cytochrome P450 1A2) | IC50 [3] | IC50 (Cytochrome P450 2D6) | Ki (Cytochrome P450 2D6) | IC50 [4] | Ki [4]
